Holding throughout (assay type): biochemical
In experiment [1] the target is T1, β1,4-N-acetylgalactosaminyltransferase 1 (B4GALNT1, GM2 synthase) (Homo sapiens, UniProt Q00973).
T1 construct: soluble His8-tagged, amino acids 1–25 deleted
T1 sequence (Q00973 26-533): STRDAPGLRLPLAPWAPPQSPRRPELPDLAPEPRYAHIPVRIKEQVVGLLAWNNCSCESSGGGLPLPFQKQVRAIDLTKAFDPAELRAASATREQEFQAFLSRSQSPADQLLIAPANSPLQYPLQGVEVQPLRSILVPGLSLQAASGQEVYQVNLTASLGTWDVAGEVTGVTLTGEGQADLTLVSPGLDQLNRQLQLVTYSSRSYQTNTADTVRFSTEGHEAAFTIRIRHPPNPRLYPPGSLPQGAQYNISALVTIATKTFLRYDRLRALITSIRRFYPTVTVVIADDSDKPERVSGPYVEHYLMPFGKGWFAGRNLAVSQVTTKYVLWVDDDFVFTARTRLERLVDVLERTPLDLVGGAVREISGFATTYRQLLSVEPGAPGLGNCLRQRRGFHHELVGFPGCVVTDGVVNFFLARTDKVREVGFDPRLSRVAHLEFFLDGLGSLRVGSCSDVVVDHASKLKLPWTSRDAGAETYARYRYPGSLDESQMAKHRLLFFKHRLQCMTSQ
In words: radiolabeled UDP-[3H]GalNAc transfer to GM3, purified enzyme; […] inhibition at […] and IC50.

Experiment [2] has as its target T1, β1,4-N-acetylgalactosaminyltransferase 1 (B4GALNT1, GM2 synthase). In words: % inhibition at […], radiolabeled GalNAc transfer assay, purified enzyme.
Experiment [3] shares this target. As to the kind of experiment: radiolabeled GalNAc transfer assay, purified enzyme, apparent KM.

For the compound `CCCCCCCCCCC[n+]1ccn(CCCCCCn2cc[n+](CCCCCCCCCCC)c2)c1` [QT163], in experiment [1], the concentration for half-maximal inhibition (IC50) (usually the concentration at which inhibition is half-maximal) was determined as 200 µM. For `CCCC(=O)N[C@@H]1[C@@H](O)[C@H](O)[C@@H](CO)O[C@H]1Sc1ccc2ccccc2c1` [compound 612, 2-naphthyl 2-butanamido-2-deoxy-1-thio-β-D-glucopyranoside], at 1000 µM the inhibition in experiment [2] was 44%.

For GM3, in experiment [3], the Michaelis constant (Km) (in general, the substrate concentration at which the rate is half of its maximum) turned out to be 500 µM.

The values above are taken from paper PMC12430364, “Characterization of Human Recombinant β1,4-GalNAc-Transferase B4GALNT1 and Inhibition by Selected Compounds” (Molecules, 2025).
